{"source": "patent US8349801B2", "about": "“Peptide ligands for G-protein coupled receptors” (priority 2006, dated 2013)", "tested_on": "Isoproterenol induced rats", "experiment": "Cardiac remodeling induced by Isoproterenol", "assay_type": "in vivo, Wistar rats", "settings": "1 ug/hour/Kg osmotic minipump, partial data", "procedure": "The effect of the peptides […] (SEQ ID NO:10), […]-dimer ([…]) (SEQ ID […]), P33_V (SEQ ID NO:7), P33-dimer (P33_D) (SEQ ID NO:6) on cardiac remodeling, was tested by determining their effect on heart hypertrophy and fibrosis (deposition of collagen I, III, and fibronectin) induced by Isoproterenol. Losartan (an antagonist of the known angiotensin II receptor, AT1, Kucharewicz et al., 2002; Hypertension, (40): 774-779) was used as positive control. The negative control group was treated with vehicle only. Additional control groups included rats not-treated with isoproterenol which were treated with the peptides, with Losartan or with the vehicle. The analysis included determination of the left ventricle mass and morphometry. In addition, immunofuorescence analysis of fibronectin and collagens I and III deposition was performed by confocal microscopy. Animals Acclimatization: Male Wistar rats Age: 13-14 weeks (250 to 300 g) were maintained in the animal facilities for 7 days before the beginning of the experiment. The animals were exposed to a brightness circle of light-dark cycle of 12 hs (day-06:00 to 18:00; night-18:00 to 06:00), and the room temperature was kept at 23±2° C. Heart failure was induced by daily injections of isoproterenol (2 mg/kg/day, subcutaneously) during 7 days. […] Immunofluorescence-labeling and quantitative confocal microscopy was used to investigate the distribution and quantity of collagen types I, III and fibronectin present in the left ventricles. […] Optimal confocal settings (aperture, gain and laser power) were determined at the beginning of each imaging session and then held constant during the analysis of all the samples. […] For quantitative analysis of collagens I, III, and fibronectin, the ImageTool 2.0 image analysis program was used ([…].edu/[…]) to measure the fluorescence intensity in images randomly selected. […]", "note": "No end group written: not given here.", "data": [{"sequence": "FLGYCIYLNRKRRGDPAFKRRLRD (also: dimer via cysteine; listed as Homo sapiens) [Peptide P61_dimer]", "values": [{"measurement": "effect as measured by Fibronectin deposition", "setting": "3 out of 6 animals", "value": "not significant"}, {"measurement": "heart hypertrophy induced by Isoproterenol, as indicated by deposition of fibronectin, Collagen I and Collagen III", "setting": "3 out of 6 animals of each group", "value": "effective in reducing the heart hypertrophy"}]}]}
